# Molecular target: Factor IXa (Homo sapiens, UniProt P00740)
# Assay: Determination of inhibitory activity against Factor IXa (cleavage of fluorescent peptide substrate)
# Assay type: biochemical
# Conditions: cleavage of fluorescent peptide CH3SO2-D-CHG-Gly-Arg-AFC, release of AFC; read-out: FIXa IC50
# In short: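 Factor IXa activity followed via cleavage of CH3SO2-D-CHG-Gly-Arg-AFC, releasing AFC. Fluorescence read at excitation 405 nm, emission 510 nm.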
# Chain of Factor IXa (P00740 227-461 limits assumed): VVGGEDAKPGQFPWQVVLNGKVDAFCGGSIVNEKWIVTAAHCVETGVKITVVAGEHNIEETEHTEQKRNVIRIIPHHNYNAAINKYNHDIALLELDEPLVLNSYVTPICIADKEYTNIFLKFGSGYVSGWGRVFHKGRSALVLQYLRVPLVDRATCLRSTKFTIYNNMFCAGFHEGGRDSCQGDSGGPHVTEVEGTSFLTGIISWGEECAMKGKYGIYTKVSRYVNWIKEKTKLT
# Chain of Factor IXa (P00740 47-191 partner limits assumed): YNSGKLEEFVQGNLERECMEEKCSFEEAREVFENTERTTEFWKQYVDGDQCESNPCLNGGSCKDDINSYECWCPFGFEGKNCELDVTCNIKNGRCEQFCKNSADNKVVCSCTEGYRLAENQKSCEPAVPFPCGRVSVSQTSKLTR
row,IC50,SMILES
1,9.69 nM,"C[C@]1([C@@H](O)C(=O)Nc2ccc(CN)cc2)OCCN(c2ccn(-c3ccncc3)n2)C1=O [Example 152, (R)—N-(4-(aminomethyl)phenyl)-2-hydroxy-2-((R)-2-methyl-3-oxo-4-(1-(pyridin-4-yl)-1H-pyrazol-3-yl)morpholin-2-yl)acetamide]"
2,12.7 nM,"C[C@]1([C@@H](O)C(=O)Nc2ccc(CN)c(F)c2)OCCN(c2ccn(-c3ccncc3)n2)C1=O [Example 153, (R)—N-(4-(aminomethyl)-3-fluorophenyl)-2-hydroxy-2-((R)-2-methyl-3-oxo-4-(1-(pyridin-4-yl)-1H-pyrazol-3-yl)morpholin-2-yl)acetamide]"
3,1.98 nM,"C[C@@H]1CN(c2ccn(-c3cnnc(C#N)c3)n2)C(=O)[C@@H]([C@@H](O)C(=O)Nc2ccc3c(N)noc3c2)O1 [Example 154, (R)—N-(3-Aminobenzo[d]isoxazol-6-yl)-2-((2R,6R)-4-(1-(6-cyanopyridazin-4-yl)-1H-pyrazol-3-yl)-6-methyl-3-oxomorpholin-2-yl)-2-hydroxyacetamide]"
4,1.68 nM,"CC1(C)CN(c2ccn(-c3cnnc(C#N)c3)n2)C(=O)[C@@H]([C@@H](O)C(=O)Nc2ccc3c(N)noc3c2)O1 [Example 156, (R)—N-(3-Aminobenzo[d]isoxazol-6-yl)-2-((R)-4-(1-(6-cyanopyridazin-4-yl)-1H-pyrazol-3-yl)-6,6-dimethyl-3-oxomorpholin-2-yl)-2-hydroxyacetamide]"
5,1.34 nM,"C[C@@H]1CN(c2ccn(-c3ccnnc3)n2)C(=O)[C@@H]([C@@H](O)C(=O)Nc2ccc3c(N)noc3c2)O1 [Example 157, (R)—N-(3-aminobenzo[d]isoxazol-6-yl)-2-hydroxy-2-((2R,6R)-6-methyl-3-oxo-4-(1-(pyridazin-4-yl)-1H-pyrazol-3-yl)morpholin-2-yl)acetamide]"
6,4.4 nM,"C[C@@H]1CN(c2nn(-c3ccnnc3)cc2F)C(=O)[C@@H]([C@@H](O)C(=O)Nc2ccc3c(N)noc3c2)O1 [Example 158, (R)—N-(3-aminobenzo[d]isoxazol-6-yl)-2-((2R,6R)-4-(4-fluoro-1-(pyridazin-4-yl)-1H-pyrazol-3-yl)-6-methyl-3-oxomorpholin-2-yl)-2-hydroxyacetamide]"
7,2.27 nM,"C[C@H]1CN(c2ccn(-c3ccnnc3)n2)C(=O)[C@@H]([C@@H](O)C(=O)Nc2ccc3c(N)noc3c2)O1 [Example 160, (R)—N-(3-aminobenzo[d]isoxazol-6-yl)-2-hydroxy-2-((2R,6S)-6-methyl-3-oxo-4-(1-(pyridazin-4-yl)-1H-pyrazol-3-yl)morpholin-2-yl)acetamide]"
8,20.9 nM,"COc1cc(-n2ccc(N3CC(C)(C)O[C@H]([C@@H](O)C(=O)Nc4ccc5c(N)noc5c4)C3=O)n2)ccn1 [Example 171, (R)—N-(3-aminobenzo[d]isoxazol-6-yl)-2-hydroxy-2-((R)-4-(1-(2-methoxypyridin-4-yl)-1H-pyrazol-3-yl)-6,6-dimethyl-3-oxomorpholin-2-yl)acetamide]"
9,21.1 nM,"CC1(C)CN(c2nn(-c3ccnnc3)cc2F)C(=O)[C@@H]([C@@H](O)C(=O)Nc2ccc3c(N)noc3c2)O1 [Example 173, (R)—N-(3-aminobenzo[d]isoxazol-6-yl)-2-((R)-4-(4-fluoro-1-(pyridazin-4-yl)-1H-pyrazol-3-yl)-6,6-dimethyl-3-oxomorpholin-2-yl)-2-hydroxyacetamide]"

# The remaining lines, values behind:
row,SMILES,IC50
1,"C[C@](O)(C(=O)Nc1ccc(CN)c(F)c1)[C@H]1OCCN(c2ccn(-c3ccncc3)n2)C1=O [Example 151, (R)—N-(4-(aminomethyl)-3-fluorophenyl)-2-hydroxy-2-((R)-3-oxo-4-(1-(pyridin-4-yl)-1H-pyrazol-3-yl)morpholin-2-yl)propanamide]",70 nM
2,"C[C@H]1CN(c2ccn(-c3cnnc(C#N)c3)n2)C(=O)[C@@H]([C@@H](O)C(=O)Nc2ccc3c(N)noc3c2)O1 [Example 155, (R)—N-(3-Aminobenzo[d]isoxazol-6-yl)-2-((2R,6S)-4-(1-(6-cyanopyridazin-4-yl)-1H-pyrazol-3-yl)-6-methyl-3-oxomorpholin-2-yl)-2-hydroxyacetamide]",1.96 nM
3,"COc1cc(-n2ccc(N3C[C@@H](C)O[C@H]([C@@H](O)C(=O)Nc4ccc5c(N)noc5c4)C3=O)n2)cnn1 [Example 159, (R)—N-(3-aminobenzo[d]isoxazol-6-yl)-2-hydroxy-2-((2R,6R)-4-(1-(6-methoxypyridazin-4-yl)-1H-pyrazol-3-yl)-6-methyl-3-oxomorpholin-2-yl)acetamide]",2.26 nM
4,"C[C@H]1CN(c2nn(-c3ccnnc3)cc2F)C(=O)[C@@H]([C@@H](O)C(=O)Nc2ccc3c(N)noc3c2)O1 [Example 161, (R)—N-(3-aminobenzo[d]isoxazol-6-yl)-2-((2R,6S)-4-(4-fluoro-1-(pyridazin-4-yl)-1H-pyrazol-3-yl)-6-methyl-3-oxomorpholin-2-yl)-2-hydroxyacetamide]",32.3 nM
5,"COc1cc(-n2ccc(N3C[C@H](C)O[C@H]([C@@H](O)C(=O)Nc4ccc5c(N)noc5c4)C3=O)n2)cnn1 [Example 162, (R)—N-(3-aminobenzo[d]isoxazol-6-yl)-2-hydroxy-2-((2R,6S)-4-(1-(6-methoxypyridazin-4-yl)-1H-pyrazol-3-yl)-6-methyl-3-oxomorpholin-2-yl)acetamide]",2.61 nM
6,"C[C@H]1CN(c2ccn(-c3ccncc3)n2)C(=O)[C@@H]([C@@H](O)C(=O)Nc2ccc3c(N)noc3c2)O1 [Example 163, (R)—N-(3-aminobenzo[d]isoxazol-6-yl)-2-hydroxy-2-((2R,6S)-6-methyl-3-oxo-4-(1-(pyridin-4-yl)-1H-pyrazol-3-yl)morpholin-2-yl)acetamide]",11.3 nM
7,"C[C@H]1CN(c2ccn(-c3ccnc(C#N)c3)n2)C(=O)[C@@H]([C@@H](O)C(=O)Nc2ccc3c(N)noc3c2)O1 [Example 164, (R)—N-(3-aminobenzo[d]isoxazol-6-yl)-2-((2R,6S)-4-(1-(2-cyanopyridin-4-yl)-1H-pyrazol-3-yl)-6-methyl-3-oxomorpholin-2-yl)-2-hydroxyacetamide]",5.68 nM
8,"C[C@@H]1CN(c2ccn(-c3ccnc(C#N)c3)n2)C(=O)[C@@H]([C@@H](O)C(=O)Nc2ccc3c(N)noc3c2)O1 [Example 165, (R)—N-(3-aminobenzo[d]isoxazol-6-yl)-2-((2R,6R)-4-(1-(2-cyanopyridin-4-yl)-1H-pyrazol-3-yl)-6-methyl-3-oxomorpholin-2-yl)-2-hydroxyacetamide]",1.98 nM
9,"C[C@@H]1CN(c2ccn(-c3ccncc3)n2)C(=O)[C@@H]([C@@H](O)C(=O)Nc2ccc3c(N)noc3c2)O1 [Example 166, (R)—N-(3-aminobenzo[d]isoxazol-6-yl)-2-hydroxy-2-((2R,6R)-6-methyl-3-oxo-4-(1-(pyridin-4-yl)-1H-pyrazol-3-yl)morpholin-2-yl)acetamide]",3.37 nM
10,"COc1cc(-n2ccc(N3C[C@H](C)O[C@H]([C@@H](O)C(=O)Nc4ccc5c(N)noc5c4)C3=O)n2)ccn1 [Example 167, (R)—N-(3-aminobenzo[d]isoxazol-6-yl)-2-hydroxy-2-((2R,6S)-4-(1-(2-methoxypyridin-4-yl)-1H-pyrazol-3-yl)-6-methyl-3-oxomorpholin-2-yl)acetamide]",17.8 nM
11,"COc1cc(-n2ccc(N3C[C@@H](C)O[C@H]([C@@H](O)C(=O)Nc4ccc5c(N)noc5c4)C3=O)n2)ccn1 [Example 168, (R)—N-(3-aminobenzo[d]isoxazol-6-yl)-2-hydroxy-2-((2R,6R)-4-(1-(2-methoxypyridin-4-yl)-1H-pyrazol-3-yl)-6-methyl-3-oxomorpholin-2-yl)acetamide]",5.85 nM
12,"C[C@H]1CN(c2ccn(-c3ccnc(C(F)(F)F)c3)n2)C(=O)[C@@H]([C@@H](O)C(=O)Nc2ccc3c(N)noc3c2)O1 [Example 169, (R)—N-(3-aminobenzo[d]isoxazol-6-yl)-2-hydroxy-2-((2R,6S)-6-methyl-3-oxo-4-(1-(2-(trifluoromethyl)pyridin-4-yl)-1H-pyrazol-3-yl)morpholin-2-yl)acetamide]",8.99 nM
13,"C[C@@H]1CN(c2ccn(-c3ccnc(C(F)(F)F)c3)n2)C(=O)[C@@H]([C@@H](O)C(=O)Nc2ccc3c(N)noc3c2)O1 [Example 170, (R)—N-(3-aminobenzo[d]isoxazol-6-yl)-2-hydroxy-2-((2R,6R)-6-methyl-3-oxo-4-(1-(2-(trifluoromethyl)pyridin-4-yl)-1H-pyrazol-3-yl)morpholin-2-yl)acetamide]",2.42 nM
14,"CC1(C)CN(c2ccn(-c3ccnnc3)n2)C(=O)[C@@H]([C@@H](O)C(=O)Nc2ccc3c(N)noc3c2)O1 [Example 172, (R)—N-(3-aminobenzo[d]isoxazol-6-yl)-2-((R)-6,6-dimethyl-3-oxo-4-(1-(pyridazin-4-yl)-1H-pyrazol-3-yl)morpholin-2-yl)-2-hydroxyacetamide]",1.8 nM
15,"COc1cc(-n2ccc(N3CC(C)(C)O[C@H]([C@@H](O)C(=O)Nc4ccc5c(N)noc5c4)C3=O)n2)cnn1 [Example 174, (R)—N-(3-aminobenzo[d]isoxazol-6-yl)-2-hydroxy-2-((R)-4-(1-(6-methoxypyridazin-4-yl)-1H-pyrazol-3-yl)-6,6-dimethyl-3-oxomorpholin-2-yl)acetamide]",2.77 nM

# Reference: patent US9708308B2, “Factor IXa inhibitors” (Merck Sharp & Dohme Corp., priority 2012, dated 2017)
